The source of these data is US20120027741A1 (priority 2009, published 2012).

Where a name gives a salt, the structure may show the parent alone. Read-outs that look alike come from different tables or passages of the source.

Type in all cases: in vivo
One experiment deals with Sphaerotheca fuliginea. Briefly: Sphaerotheca test (cucumbers)/protective. Particulars: 7 days after inoculation. Here is the method:
Sphaerotheca Test (Cucumbers)/Protective
(§1) Solvent: • 24,5 parts by weight of acetone • 24,5 parts by weight of dimethylacetamide
(§2) Emulsifier: • 1 part by weight of alkylaryl polyglycol ether
(§3) To produce a suitable preparation of active compound, 1 part by weight of active compound is mixed with the stated amounts of solvent and emulsifier, and the concentrate is diluted with water to the desired concentration.
To test for protect activity, young plants are sprayed with the preparation of active compound at the stated rate of application. After the spray coating has dried on, the plants are inoculated with to an aqueous spore suspension of Sphaerotheca fuliginea. The plants are then placed in a greenhouse at approximately 23° C. and a relative atmospheric humidity of approximately 70%.
The test is evaluated 7 days after the inoculation. 0% means an efficacy which corresponds to that of the control, while an efficacy of 100% means that no disease is observed.

Another experiment deals with Phytophthora infestans. Briefly: whole plant or invertebrate. Particulars: tomatoes, 3 days after inoculation; for pest or weed control at 12.5 ppm: read-out: Efficacy in % found, Table 2.
In another experiment the test system is Botrytis cinerea. Kind of experiment: Botrytis test (beans)/protective. Particulars: 48 h, 2 days after inoculation, read-out: Efficacy in % found; for pest or weed control at 5 ppm: Table 9, 5 ppm a.i.; for pest or weed control at 10 ppm: Table 9, 10 ppm a.i. Here is the method:
Botrytis Test (Beans)/Protective
as §1, §2, §3
To test for protective activity, young plants are sprayed with the preparation of active compound. After the spray coating has dried on, 2 small pieces of agar covered with growth of Botrytis cinerea are placed on each leaf. The inoculated plants are placed in a darkened chamber at 20° C. and a relative atmospheric humidity of 100%.
2 days after the inoculation, the size of the lesions on the leaves is evaluated. 0% means an efficacy which corresponds to that of the control, while an efficacy of 100% means that no disease is observed.

A further experiment relates to Pythium ultimum. Kind of experiment: Pythium test (cotton)/seed treatment. As to conditions: emerged seedlings after 7 days. As to the method:
Pythium Test (Cotton)/Seed Treatment
The test is performed under greenhouse conditions.
Cotton seeds, treated with the active compound or compound combinations, solved in N-methyl-2-pyrrolidon and diluted with water to the desired dosages, were sown in 6*6 cm pots containing 4 cm of a 1:1 mix of steamed field soil and sand.
Perlite was incubated with mycelium fragments of Pythium ultimum. 1 ml of infected perlite was scattered between the treated cotton seeds. Seeds were then covered by light expanded clay aggregate. Pots were incubated in the greenhouse 7 days at 20° C. and 80% relative humidity.
Assessment consisted of counting of emerged seedlings. 0% means an efficacy which to corresponds to that of the control, while an efficacy of 100% means that all seedlings have emerged.

Where [1] appears, read: Podosphaera fuliginea, 168 h, Table 7, 1 ppm a.i., read-out: Efficacy in % found.
The mark [2] stands for this setting: Phytophthora infestans, 72 h, read-out: Efficacy in % found, Table 1, 0.4 ppm a.i.
Setting [3] is: Phytophthora infestans, 72 h, read-out: Efficacy in % found, Table 1, 40 ppm a.i.
Setting [4] is: Phytophthora infestans, 72 h, 12.5 ppm a.i.

Consider `Fc1ccc([C@]2(Cn3cncn3)O[C@H]2c2ccccc2Cl)cc1` (racemic) [epoxiconazole], for which, in the experiment with Sphaerotheca fuliginea (setting [1]), the pest or weed control at 1 ppm came to 63%.
For the molecule `C[C@@]1(c2ccc(Oc3ccccc3)cc2)OC(=O)N(Nc2ccccc2)C1=O` (racemic) [famoxadone], in the experiment with Phytophthora infestans (setting [2]), the pest or weed control at 0.4 ppm amounted to 23%.
For `Cn1cc(C(=O)Nc2ccccc2-c2cc(F)c(F)c(F)c2)c(C(F)F)n1` [3-(difluoromethyl)-1-methyl-N-(3′,4′,5′-trifluorobiphenyl-2-yl)-1H-pyrazole-4-carboxamide], the pest or weed control at 5 ppm in the experiment with Botrytis cinerea was determined as 65%. Moreover, in the experiment with Phytophthora infestans (Phytophthora infestans, 72 h, read-out: Efficacy in % found, Table 3, 100 ppm a.i.), the pest or weed control at 100 ppm came out at 35%.
Consider `Cc1cc(C(F)(F)F)nn1CC(=O)N1CCC(c2nc(C(=O)N(C)[C@@H]3CCCc4ccccc43)cs2)CC1` [N-methyl-2-(1-{[5-methyl-3-(trifluoromethyl)-1H-pyrazol-1-yl]acetyl}piperidin-4-yl)-N-[(1R)-1,2,3,4-tetrahydronaphthalen-1-yl]-1,3-thiazole-4-carboxamide], for which the pest or weed control at 0.1 ppm in the experiment with Phytophthora infestans (Phytophthora infestans, 72 h, read-out: Efficacy in % found, Table 1, 0.1 ppm a.i.) was found to be 48%.
Turning to `CCCCCCCCc1c(CC)nc2ncnn2c1N` [ametoctradin], the “Efficacy in % found” value in the experiment with Phytophthora infestans (Table 1, 1 ppm a.i.) was determined as 22%.
As for `CO/C=C(/C(=O)OC)c1ccccc1Oc1cc(Oc2ccccc2C#N)ncn1` [azoxystrobin], the “Efficacy in % found” value in the experiment with Phytophthora infestans (Table 1, 0.4 ppm a.i.) was determined as 30%; with Sphaerotheca fuliginea (Table 8, 1 ppm a.i.), 30%.
For `COC(=O)[C@@H](C)N(C(=O)Cc1ccccc1)c1c(C)cccc1C` [benalaxyl-M], the “Efficacy in % found” value with Pythium ultimum (Table 11, 1 g a.i./dt) is listed as 4%; in the experiment on Phytophthora infestans (Table 5, 1 ppm a.i.), 28%.
As to `CC(C)[C@H](NC(=O)O)C(=O)N[C@H](C)c1nc2ccc(F)cc2s1` [benthiavalicarb], in the experiment on Phytophthora infestans (Table 1, 0.1 ppm a.i.), the “Efficacy in % found” value was 48%.
As to `Cn1cc(C(=O)Nc2ccc(F)cc2-c2ccc(Cl)c(Cl)c2)c(C(F)F)n1` [bixafen, N-(3′,4′-dichloro-5-fluorobiphenyl-2-yl)-3-(difluoromethyl)-1-methyl-1H-pyrazole-4-carboxamide], in the experiment on Phytophthora infestans (setting [3]), the pest or weed control at 40 ppm was determined as 18%. Also, the pest or weed control at 1 ppm in the experiment with Sphaerotheca fuliginea (Podosphaera fuliginea, 168 h, Table 8, 1 ppm a.i., read-out: Efficacy in % found) is 0%.
As to `O=C(Nc1ccccc1-c1ccc(Cl)cc1)c1cccnc1Cl` [boscalid], the pest or weed control at 10 ppm in the experiment on Botrytis cinerea worked out at 73%. Also, the pest or weed control at 40 ppm in the experiment with Phytophthora infestans (setting [3]) was found to be 26%.
`N#Cc1c(Cl)c(Cl)c(Cl)c(C#N)c1Cl` [chlorothalonil]: the pest or weed control at 12.5 ppm in the experiment with Phytophthora infestans (setting [4]) is 20%.
On to `[Cu+2].[OH-].[OH-]` [copper hydroxide], for which the “Efficacy in % found” value with Phytophthora infestans (Table 2, 6.25 ppm a.i.) is 73%.
On the same count and under the same terms, the value for `[Cl-].[Cu+2].[Cu+2].[OH-].[OH-].[OH-]` [copper oxychloride] was 60%.
Consider `Cc1ccc(-c2c(Cl)nc(C#N)n2S(=O)(=O)N(C)C)cc1` [cyazofamid], for which the pest or weed control at 0.4 ppm in the experiment with Phytophthora infestans (setting [2]) amounted to 49%.
`CCNC(=O)NC(=O)/C(C#N)=N/OC` [cymoxanil]: in the experiment on Phytophthora infestans (Phytophthora infestans, 72 h, read-out: Efficacy in % found, Table 6, 1.25 ppm a.i.), the pest or weed control at 1.25 ppm is 29%.
As for `COc1ccc(C(=CC(=O)N2CCOCC2)c2ccc(Cl)cc2)cc1OC` [dimethomorph], the pest or weed control at 0.4 ppm in the experiment with Phytophthora infestans (setting [2]) is 41%.
As to `CSC1=N[C@@](C)(c2ccccc2)C(=O)N1Nc1ccccc1` [fenamidone], in the experiment on Pythium ultimum (Table 11, 1 g a.i./dt), the “Efficacy in % found” value turned out to be 4%. In addition, the pest or weed control at 0.4 ppm in the experiment with Phytophthora infestans (setting [2]) was found to be 57%.
Take `CC1(C(=O)Nc2ccc(O)c(Cl)c2Cl)CCCCC1` [fenhexamid]: the pest or weed control at 5 ppm in the experiment with Botrytis cinerea stood at 81%.
Turning to `O=[N+]([O-])c1cc(C(F)(F)F)c(Cl)c([N+](=O)[O-])c1Nc1ncc(C(F)(F)F)cc1Cl` [fluazinam], the pest or weed control at 2 ppm with Phytophthora infestans (Phytophthora infestans, 72 h, read-out: Efficacy in % found, Table 1, 2 ppm a.i.) was 38%.
As for `O=C(NCc1ncc(C(F)(F)F)cc1Cl)c1c(Cl)cccc1Cl` [fluopicolide], the “Efficacy in % found” value was 26% with Pythium ultimum (Table 11, 10 g a.i./dt) and 18% with Phytophthora infestans (Table 1, 0.4 ppm a.i.).
As to `O=C(NCCc1ncc(C(F)(F)F)cc1Cl)c1ccccc1C(F)(F)F` [fluopyram, N-{2-[3-chloro-5-(trifluoromethyl)pyridin-2-yl]ethyl}-2-(trifluoromethyl)benzamide], the pest or weed control at 10 ppm in the experiment with Botrytis cinerea was determined as 70%. Also, in the experiment on Phytophthora infestans (Phytophthora infestans, 72 h, read-out: Efficacy in % found, Table 3, 25 ppm a.i.), the pest or weed control at 25 ppm amounted to 9%.
Consider `CO/N=C(/C1=NOCCO1)c1ccccc1Oc1ncnc(Oc2ccccc2Cl)c1F` [fluoxastrobin], for which the pest or weed control at 0.4 ppm in the experiment with Phytophthora infestans (setting [2]) worked out at 36%.
In the case of `O=c1c2cc(F)ccc2nc(-n2cncn2)n1-c1ccc(Cl)cc1Cl` [fluquinconazole], the pest or weed control at 0.5 ppm with Sphaerotheca fuliginea (Podosphaera fuliginea, 168 h, Table 7, 0.5 ppm a.i., read-out: Efficacy in % found) came out at 63%.
As to `O=C1c2ccccc2C(=O)N1SC(Cl)(Cl)Cl` [folpet], the pest or weed control at 50 ppm in the experiment with Botrytis cinerea (Table 10, 50 ppm a.i.) stood at 79%.
In the case of `CCO[PH](=O)O` [fosetyl-Al], the “Efficacy in % found” value in the experiment on Phytophthora infestans (Table 2, 12.5 ppm a.i.) turned out to be 0%.
As to `CC(C)NC(=O)N1CC(=O)N(c2cc(Cl)cc(Cl)c2)C1=O` [iprodione], the pest or weed control at 50 ppm in the experiment on Botrytis cinerea (Table 9, 50 ppm a.i.) stood at 70%.
Regarding `Cc1ccc(C(C)NC(=O)[C@@H](NC(=O)OC(C)C)C(C)C)cc1` (stereo partly drawn) [iprovalicarb], in the experiment with Phytophthora infestans (Table 1, 0.4 ppm a.i.), the “Efficacy in % found” value worked out at 0%.
`CC(C)C1C2CCC1c1c(NC(=O)c3cn(C)nc3C(F)F)cccc12` (stereo not drawn) [isopyrazam]: in the experiment on Phytophthora infestans (Table 1, 40 ppm a.i.), the “Efficacy in % found” value worked out at 20%.
With `COCC(=O)N(c1c(C)cccc1C)[C@H](C)C(=O)OC` [mefenoxam], the “Efficacy in % found” value in the experiment on Pythium ultimum (Table 11, 0.1 g a.i./dt) was 48%.
`Cc1nn(C)c(F)c1C(=O)Nc1ccccc1C(C)CC(C)C` (stereo not drawn) [penflufen]: in the experiment with Phytophthora infestans (Table 1, 40 ppm a.i.), the “Efficacy in % found” value is 16%.
As to `CC(C)CC(C)c1sccc1NC(=O)c1cn(C)nc1C(F)(F)F` (stereo not drawn) [penthiopyrad], in the experiment with Phytophthora infestans (setting [3]), the pest or weed control at 40 ppm was found to be 31%.
On to `OP(O)O` [phosphorous acid], for which the “Efficacy in % found” value in the experiment with Phytophthora infestans (Table 2, 12.5 ppm a.i.) was 0%.
With `CCCN(CCOc1c(Cl)cc(Cl)cc1Cl)C(=O)n1ccnc1` [prochloraz], the pest or weed control at 100 ppm in the experiment on Phytophthora infestans (Phytophthora infestans, 72 h, read-out: Efficacy in % found, Table 4, 100 ppm a.i.) was found to be 26%.
As for `CCCOC(=O)NCCCN(C)C` [propamocarb-HCl], the pest or weed control at 12.5 ppm with Phytophthora infestans (setting [4]) worked out at 20%.
As to `CCCC1COC(Cn2cncn2)(c2ccc(Cl)cc2Cl)O1` (stereo not drawn) [propiconazole], in the experiment with Sphaerotheca fuliginea (setting [1]), the pest or weed control at 1 ppm came to 13%.
The same measure, in the same setting: with `OC(Cc1ccccc1Cl)(Cn1nc[nH]c1=S)C1(Cl)CC1` (stereo not drawn) [prothioconazole] the figure was 50%.
In the case of `COC(=O)N(OC)c1ccccc1COc1ccn(-c2ccc(Cl)cc2)n1` [pyraclostrobin], in the experiment with Phytophthora infestans (setting [2]), the pest or weed control at 0.4 ppm was determined as 28%.
On to `Cc1cc(C)nc(Nc2ccccc2)n1` [pyrimethanil], for which, in the experiment with Botrytis cinerea (Table 9, 25 ppm a.i.), the pest or weed control at 25 ppm was 30%.
Consider `Cn1cc(C(=O)Nc2ccccc2C2CC2C2CC2)c(C(F)F)n1` (stereo not drawn) [sedaxane], for which, in the experiment with Phytophthora infestans (Table 1, 40 ppm a.i.), the “Efficacy in % found” value was 37%.
Take `CC(C)(C)C(O)(CCc1ccc(Cl)cc1)Cn1cncn1` (stereo not drawn) [tebuconazole]: the pest or weed control at 2 ppm in the experiment with Sphaerotheca fuliginea (Podosphaera fuliginea, 168 h, Table 7, 2 ppm a.i., read-out: Efficacy in % found) stood at 13%.
On to `CC(C)(C)C(O)C(Oc1ccc(Cl)cc1)n1cncn1` (stereo not drawn) [triadimenol], for which the pest or weed control at 1 ppm in the experiment with Sphaerotheca fuliginea (setting [1]) was 38%.
On to `CON=C(C(=O)OC)c1ccccc1CON=C(C)c1cccc(C(F)(F)F)c1` [trifloxystrobin], for which, in the experiment on Sphaerotheca fuliginea (Podosphaera fuliginea, 168 h, Table 7, 2.5 ppm a.i., read-out: Efficacy in % found), the pest or weed control at 2.5 ppm was found to be 58%.
`CCC(C)(NC(=O)c1cc(Cl)c(C)c(Cl)c1)C(=O)CCl` (stereo not drawn) [zoxamide]: in the experiment on Phytophthora infestans (setting [2]), the pest or weed control at 0.4 ppm was 16%.
mancozeb: the “Efficacy in % found” value in the experiment on Phytophthora infestans (Table 1, 20 ppm a.i.) turned out to be 33%.
On to metiram, for which, in the experiment with Phytophthora infestans (Table 4, 100 ppm a.i.), the “Efficacy in % found” value came to 26%.
On to propineb, for which, in the experiment with Phytophthora infestans (Table 2, 6.25 ppm a.i.), the “Efficacy in % found” value was 63%.
